Test results published in patent US20230265151A1, “GIP/GLP1 CO-AGONIST COMPOUNDS” (priority 2020, published 2023).
Like-named read-outs stand apart in the source and are kept apart here.

Legend:
hGCGR = target: T1, hGCGR (Homo sapiens, UniProt P47871); experiment: Functional cAMP formation (HTRF) in HEK-293 clonal cells expressing hGCGR, 0.1% bovine casein, without or with 1.0% human serum albumin; format: cell-based; settings: geometric mean
T1 construct: expressed in transfected cells
Outline: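 Cells were stimulated with peptide for 30 min at 37° C, then lysed in buffer carrying cAMP-d2 and anti-cAMP Eu3+-cryptate for a competitive HTRF read after at least 60 min at room temperature. The 665/620 nm ratio was converted to nM cAMP against a standard curve.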

hGLP-1R = hGLP-1R (Homo sapiens, UniProt P43220); experiment: Functional cAMP formation (HTRF) in HEK-293 clonal cells expressing hGLP-1R, 0.1% bovine casein, without or with 1.0% human serum albumin; format: cell-based; parameters: expressed in transfected cells; settings: for Emax: 37° C.; for EC50: cAMP, incubated at 37° C., 0.1% bovine casein (no human serum albumin), geometric mean
Procedure: After a 30-min incubation at 37° C., the resulting increase in intracellular cAMP is quantitatively determined using a CisBio cAMP Dynamic 2 HTRF Assay Kit (62AM4PEJ). Briefly, cAMP levels within the cell are detected by adding the cAMP-d2 conjugate in cell lysis buffer (10 µL) followed by the antibody anti-cAMP-Eu^3+-Cryptate, also in cell lysis buffer (10 µL). The resulting competitive assay is incubated for at least 60 min at room temperature, and then is detected using a PerkinElmer Envision® instrument with excitation at 320 nm and emission at 665 nm and 620 nm. Envision units (emission at 665 nm/620 nm* 10,000) are inversely proportional to the amount of cAMP present and are converted to nM cAMP per well us-ing a cAMP standard curve. […] A relative EC50 value and percent top (Emax) are derived by non-linear regression analysis using the percent maximal response vs. the concentration of peptide added, fitted to a four-parameter logistic equation.

[1] = cAMP, incubated at 37° C., 0.1% bovine casein (no human serum albumin), read-out: hGCGR EC50, nM (SEM, n)
[2] = read-out: hGLP-1R EC50, nM (SEM, n)
[3] = hGCGR EC50, nM (SEM, n), cAMP, incubated at 37° C., 0.1% bovine casein (no human serum albumin)
[4] = HEK293, read-out: hGLP-1R Emax, % ± SEM, percent of maximal response to GLP-1(7-36)NH2, 0.1% bovine casein, arithmetic mean

Chain of hGLP-1R (P43220 24-463): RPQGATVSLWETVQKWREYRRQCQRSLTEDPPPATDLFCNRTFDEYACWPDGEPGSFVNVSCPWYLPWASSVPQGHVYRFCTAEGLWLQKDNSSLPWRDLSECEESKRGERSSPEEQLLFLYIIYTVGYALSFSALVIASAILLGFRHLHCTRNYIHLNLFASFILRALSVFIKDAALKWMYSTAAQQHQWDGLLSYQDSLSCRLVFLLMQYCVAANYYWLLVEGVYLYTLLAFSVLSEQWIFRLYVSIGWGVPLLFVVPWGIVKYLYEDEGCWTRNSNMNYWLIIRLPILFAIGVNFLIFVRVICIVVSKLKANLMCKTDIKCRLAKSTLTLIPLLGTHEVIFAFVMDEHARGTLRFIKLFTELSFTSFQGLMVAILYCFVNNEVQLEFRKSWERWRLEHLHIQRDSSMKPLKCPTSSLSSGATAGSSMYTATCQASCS
T1 sequence (P47871 26-477): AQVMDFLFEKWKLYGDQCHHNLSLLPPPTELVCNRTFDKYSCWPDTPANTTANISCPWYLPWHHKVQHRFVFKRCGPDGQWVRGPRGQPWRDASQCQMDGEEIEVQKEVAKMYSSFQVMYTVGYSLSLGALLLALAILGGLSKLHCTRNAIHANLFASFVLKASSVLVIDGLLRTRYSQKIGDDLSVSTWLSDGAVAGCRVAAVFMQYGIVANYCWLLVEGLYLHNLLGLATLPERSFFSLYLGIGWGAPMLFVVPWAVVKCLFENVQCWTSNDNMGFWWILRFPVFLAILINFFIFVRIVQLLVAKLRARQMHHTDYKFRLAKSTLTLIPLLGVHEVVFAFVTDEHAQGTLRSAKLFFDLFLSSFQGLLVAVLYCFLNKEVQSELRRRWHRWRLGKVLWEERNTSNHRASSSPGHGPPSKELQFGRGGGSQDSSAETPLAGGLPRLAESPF

Structure (SMILES) | EC50 (hGCGR; [1]) | EC50 (hGLP-1R; [2]) | EC50 (hGCGR; [3]) | EC50 (hGLP-1R; hGLP-1R EC50, nM (SEM, n)) | Emax (hGLP-1R; [4]) | also measured
CC[C@H](C)[C@H](NC(=O)[C@H](CC(C)C)NC(=O)[C@](C)(Cc1ccc(O)cc1)NC(=O)[C@@H](CCC(=O)O)NC(=O)[C@@H](NC(=O)[C@H](Cc1ccccc1)NC(=O)[C@H](CCC(=O)O)NC(=O)C(C)(C)NC(=O)[C@H](CCC(N)=O)NC(=O)[C@H](C)NC(=O)[C@H](CCCCNC(=O)COCCOCCNC(=O)COCCOCCNC(=O)CC[C@H](NC(=O)CCCCCCCCCCCCC(=O)O)C(=O)O)NC(=O)[C@H](CCCN)NC(=O)[C@H](CC(=O)O)NC(=O)[C@H](CC(C)C)NC(=O)[C@](C)(CC(C)C)NC(=O)[C@@H](NC(=O)[C@H](CO)NC(=O)C1(NC(=O)[C@H](CC(=O)O)NC(=O)[C@H](CO)NC(=O)[C@@H](NC(=O)[C@](C)(Cc2ccccc2F)NC(=O)[C@@H](NC(=O)CNC(=O)[C@H](CCC(=O)O)NC(=O)C(C)(C)NC(=O)[C@@H](N)Cc2ccc(O)cc2)[C@@H](C)O)[C@@H](C)O)CCCC1)[C@@H](C)CC)[C@@H](C)CC)C(=O)N[C@@H](CCC(=O)O)C(=O)NCC(=O)NCC(=O)N[C@@H](CCCCNC(=O)COCCOCCNC(=O)COCCOCCNC(=O)CC[C@H](NC(=O)CCCCCCCCCCCCC(=O)O)C(=O)O)C(=O)N[C@@H](CO)C(=O)N[C@@H](CO)C(=O)NCC(=O)N[C@@H](C)C(=O)N1CCC[C@H]1C(=O)N1CCC[C@H]1C(=O)N1CCC[C@H]1C(=O)N[C@@H](CO)C(N)=O [Example 53] | > 9950 nM | 0.18 nM |  |  |  | EC50 (hGCGR; 0.1% bovine casein and 1.0% human serum albumin, 37° C., read-out: hGCGR EC50, nM (SEM, n)): > 9950 nM; Emax (hGLP-1R; HEK293, 0.1% bovine casein and 1.0% human serum albumin, percent of maximal response to GLP-1(7-36)NH2, read-out: hGLP-1R Emax, % ± SEM): 89.3 ± 6.12%; Emax (hGLP-1R; HEK293, percent of maximal response to GLP-1(7-36)NH2, 0.1% bovine casein, arithmetic mean, read-out: hGLP-1R Emax, % ± SEM): 89.9 ± 9.41%
CC[C@H](C)[C@H](NC(=O)[C@H](CCCN)NC(=O)[C@H](CC(=O)O)NC(=O)[C@H](CC(C)C)NC(=O)[C@](C)(CC(C)C)NC(=O)[C@@H](NC(=O)[C@H](CO)NC(=O)[C@H](CCCCNC(=O)COCCOCCNC(=O)COCCOCCNC(=O)CC[C@H](NC(=O)CCCCCCCCCCCCC(=O)O)C(=O)O)NC(=O)[C@H](CC(=O)O)NC(=O)[C@H](CO)NC(=O)[C@@H](NC(=O)[C@](C)(Cc1ccccc1F)NC(=O)[C@@H](NC(=O)CNC(=O)[C@H](CCC(=O)O)NC(=O)C(C)(C)NC(=O)[C@@H](N)Cc1ccc(O)cc1)[C@@H](C)O)[C@@H](C)O)[C@@H](C)CC)C(=O)N[C@@H](C)C(=O)N[C@@H](CCC(N)=O)C(=O)NC(C)(C)C(=O)N[C@@H](CCCCNC(=O)COCCOCCNC(=O)COCCOCCNC(=O)CC[C@H](NC(=O)CCCCCCCCCCCCC(=O)O)C(=O)O)C(=O)N[C@@H](Cc1ccccc1)C(=O)N[C@H](C(=O)N[C@H](CCC(=O)O)C(=O)N[C@@](C)(Cc1ccc(O)cc1)C(=O)N[C@@H](CC(C)C)C(=O)N[C@H](C(=O)N[C@@H](CCC(=O)O)C(=O)NCC(=O)NCC(=O)N1CCC[C@H]1C(=O)N[C@@H](CO)C(=O)N[C@@H](CO)C(=O)NCC(=O)N[C@@H](C)C(=O)N1CCC[C@H]1C(=O)N1CCC[C@H]1C(=O)N1CCC[C@H]1C(=O)N[C@@H](CO)C(N)=O)[C@@H](C)CC)[C@@H](C)CC [Example 105] | > 9950 nM | 0.52 nM |  |  |  | 
CC[C@H](C)[C@H](NC(=O)[C@H](CC(C)C)NC(=O)[C@](C)(Cc1ccc(O)cc1)NC(=O)[C@H](CCCCNC(=O)COCCOCCNC(=O)COCCOCCNC(=O)CC[C@H](NC(=O)CCCCCCCCCCCCC(=O)O)C(=O)O)NC(=O)[C@@H](NC(=O)[C@](C)(Cc1ccccc1)NC(=O)[C@H](CCC(=O)O)NC(=O)C(C)(C)NC(=O)[C@H](CCC(N)=O)NC(=O)[C@H](C)NC(=O)[C@H](CCCCNC(=O)COCCOCCNC(=O)COCCOCCNC(=O)CC[C@H](NC(=O)CCCCCCCCCCCCC(=O)O)C(=O)O)NC(=O)[C@H](CCCN)NC(=O)[C@H](CC(=O)O)NC(=O)[C@H](CC(C)C)NC(=O)[C@](C)(CC(C)C)NC(=O)[C@@H](NC(=O)[C@H](CO)NC(=O)C1(NC(=O)[C@H](CC(=O)O)NC(=O)[C@H](CO)NC(=O)[C@@H](NC(=O)[C@](C)(Cc2ccccc2F)NC(=O)[C@@H](NC(=O)CNC(=O)[C@H](CCC(=O)O)NC(=O)C(C)(C)NC(=O)[C@@H](N)Cc2ccc(O)cc2)[C@@H](C)O)[C@@H](C)O)CCCC1)[C@@H](C)CC)[C@@H](C)CC)C(=O)N[C@@H](CCC(=O)O)C(=O)NCC(=O)NCC(=O)N1CCC[C@H]1C(=O)N[C@@H](CO)C(=O)N[C@@H](CO)C(=O)NCC(=O)N[C@@H](C)C(=O)N1CCC[C@H]1C(=O)N1CCC[C@H]1C(=O)N1CCC[C@H]1C(=O)N[C@@H](CO)C(N)=O [Example 120] |  |  | > 9950 nM | 1.43 nM |  | 
CC[C@H](C)[C@H](NC(=O)[C@H](CC(C)C)NC(=O)[C@](C)(Cc1ccccc1)NC(=O)[C@H](CCCCNC(=O)COCCOCCNC(=O)COCCOCCNC(=O)CC[C@H](NC(=O)CCCCCCCCCCCCC(=O)O)C(=O)O)NC(=O)[C@@H](NC(=O)[C@](C)(Cc1ccccc1)NC(=O)[C@H](CCC(=O)O)NC(=O)C(C)(C)NC(=O)[C@H](CCC(N)=O)NC(=O)[C@H](C)NC(=O)[C@H](CCCCNC(=O)COCCOCCNC(=O)COCCOCCNC(=O)CC[C@H](NC(=O)CCCCCCCCCCCCC(=O)O)C(=O)O)NC(=O)[C@H](CCCN)NC(=O)[C@H](CC(=O)O)NC(=O)[C@H](CC(C)C)NC(=O)[C@](C)(CC(C)C)NC(=O)[C@@H](NC(=O)[C@H](CO)NC(=O)C1(NC(=O)[C@H](CC(=O)O)NC(=O)[C@H](CO)NC(=O)[C@@H](NC(=O)[C@](C)(Cc2ccccc2F)NC(=O)[C@@H](NC(=O)CNC(=O)[C@H](CCC(=O)O)NC(=O)C(C)(C)NC(=O)[C@@H](N)Cc2ccc(O)cc2)[C@@H](C)O)[C@@H](C)O)CCCC1)[C@@H](C)CC)[C@@H](C)CC)C(=O)N[C@@H](CCC(=O)O)C(=O)NCC(=O)NCC(=O)N1CCC[C@H]1C(=O)N[C@@H](CO)C(=O)N[C@@H](CO)C(=O)NCC(=O)N[C@@H](C)C(=O)N1CCC[C@H]1C(=O)N1CCC[C@H]1C(=O)N1CCC[C@H]1C(=O)N[C@@H](CO)C(N)=O [Example 124] |  |  | > 9950 nM |  | 93.3% | 
CC[C@H](C)[C@H](NC(=O)[C@H](CC(C)C)NC(=O)[C@](C)(Cc1ccc(O)cc1)NC(=O)[C@@H](CCC(=O)O)NC(=O)[C@@H](NC(=O)[C@H](Cc1ccccc1)NC(=O)[C@H](CCCCNC(=O)COCCOCCNC(=O)COCCOCCNC(=O)CC[C@H](NC(=O)CCCCCCCCCOc1ccc(C(=O)O)cc1)C(=O)O)NC(=O)C(C)(C)NC(=O)[C@H](CCC(N)=O)NC(=O)[C@H](C)NC(=O)[C@H](CCCCNC(=O)COCCOCCNC(=O)COCCOCCNC(=O)CC[C@H](NC(=O)CCCCCCCCCOc1ccc(C(=O)O)cc1)C(=O)O)NC(=O)[C@H](CCCN)NC(=O)[C@H](CC(=O)O)NC(=O)[C@H](CC(C)C)NC(=O)[C@](C)(CC(C)C)NC(=O)[C@@H](NC(=O)[C@H](CO)NC(=O)[C@H](Cc1ccncc1)NC(=O)[C@H](CC(=O)O)NC(=O)[C@H](CO)NC(=O)[C@@H](NC(=O)[C@](C)(Cc1ccccc1F)NC(=O)[C@@H](NC(=O)CNC(=O)[C@H](CCC(=O)O)NC(=O)C(C)(C)NC(=O)[C@@H](N)Cc1ccc(O)cc1)[C@@H](C)O)[C@@H](C)O)[C@@H](C)CC)[C@@H](C)CC)C(=O)N[C@@H](CCC(=O)O)C(=O)NCC(=O)NCC(=O)N1CCC[C@H]1C(=O)N[C@@H](CO)C(=O)N[C@@H](CO)C(=O)NCC(=O)N[C@@H](C)C(=O)N1CCC[C@H]1C(=O)N1CCC[C@H]1C(=O)N1CCC[C@H]1C(=O)N[C@@H](CO)C(N)=O [Example 127] |  |  | > 9950 nM |  | 98.5% | 
CC[C@H](C)[C@H](NC(=O)[C@H](CC(C)C)NC(=O)[C@](C)(Cc1ccc(O)cc1)NC(=O)[C@@H](CCC(=O)O)NC(=O)[C@@H](NC(=O)[C@H](Cc1ccccc1)NC(=O)[C@H](CCC(=O)O)NC(=O)C(C)(C)NC(=O)[C@H](CCC(N)=O)NC(=O)[C@H](C)NC(=O)[C@H](CCCCNC(=O)COCCOCCNC(=O)COCCOCCNC(=O)CC[C@H](NC(=O)CCCCCCCCCOc1ccc(C(=O)O)cc1)C(=O)O)NC(=O)[C@H](CCCN)NC(=O)[C@H](CC(=O)O)NC(=O)[C@H](CC(C)C)NC(=O)[C@](C)(CC(C)C)NC(=O)[C@@H](NC(=O)[C@H](CO)NC(=O)[C@H](Cc1ccncc1)NC(=O)[C@H](CC(=O)O)NC(=O)[C@H](CO)NC(=O)[C@@H](NC(=O)[C@](C)(Cc1ccccc1F)NC(=O)[C@@H](NC(=O)CNC(=O)[C@H](CCC(=O)O)NC(=O)C(C)(C)NC(=O)[C@@H](N)Cc1ccc(O)cc1)[C@@H](C)O)[C@@H](C)O)[C@@H](C)CC)[C@@H](C)CC)C(=O)N[C@@H](CCCCNC(=O)COCCOCCNC(=O)COCCOCCNC(=O)CC[C@H](NC(=O)CCCCCCCCCOc1ccc(C(=O)O)cc1)C(=O)O)C(=O)NCC(=O)NCC(=O)N1CCC[C@H]1C(=O)N[C@@H](CO)C(=O)N[C@@H](CO)C(=O)NCC(=O)N[C@@H](C)C(=O)N1CCC[C@H]1C(=O)N1CCC[C@H]1C(=O)N1CCC[C@H]1C(=O)N[C@@H](CO)C(N)=O [Example 129] |  |  | > 9950 nM | 1.28 nM | 97.9% | 
